Experiments:
[1] = system: SMN2 minigene mRNA (SMN2-A minigene construct); assay: SMN2 minigene mRNA splicing RT-qPCR assay in cultured cells; type: cell-based, human; details: Homo sapiens, HEK293-H; HEK293H cells stably transfected with SMN2-A minigene, 24 hours, 7-point concentration data; concentration giving 1.5-fold SMN2 full length mRNA relative to vehicle-treated cells; read-out: EC1.5x for production of full length SMN2 mRNA
Experimental: The reverse transcription-quantitative PCR-based (RT-qPCR) assay is used to quantify the level of the full length SMN2 minigene mRNA containing SMN2 exon 7 in a HEK293H cell line stably transfected with said minigene and treated with a test compound.
HEK293H cells stably transfected with the SMN2-A minigene construct described above (10,000 cells/well) are seeded in 200 μL of cell culture medium (DMEM plus 10% FBS, with 200 μg/mL hygromycin) in 96-well flat-bottom plates and the plate is immediately swirled to ensure proper dispersal of cells, forming an even monolayer of cells. Cells are allowed to attach for at least 4-6 hours. Test compounds are serially diluted 3.16-fold in 100% DMSO to generate a 7-point concentration curve. A solution of test compound (1 μL, 200× in DMSO) is added to each cell-containing well and the plate is incubated for 24 hours in a cell culture incubator (37° C., 5% CO2, 100% relative humidity). Two replicates are prepared for each test compound concentration. The cells are then lysed in Cells-To-Ct lysis buffer and the lysate is stored at −80° C.
Primer SMN Forward A (SEQ ID NO. 1) hybridizes to a nucleotide sequence in exon 7 (nucleotide 22 to nucleotide 40), primer SMN Reverse A (SEQ ID NO. 2) hybridizes to a nucleotide sequence in the coding sequence of Firefly luciferase, SMN Probe A (SEQ ID NO. 3) hybridizes to a nucleotide sequence in exon 7 (nucleotide 50 to nucleotide 54) and exon 8 (nucleotide 1 to nucleotide 21). The combination of these three oligonucleotides detects only SMN1 or SMN2 minigenes (RT-qPCR) and will not detect endogenous SMN1 or SMN2 genes.
The SMN forward and reverse primers are used at final concentrations of 0.4 μM. The SMN probe is used at a final concentration of 0.15 μM. The GAPDH primers are used at final concentrations of 0.2 μM and the probe at 0.15 μM.
The SMN2-minigene GAPDH mix (15 μL total volume) is prepared by combining 7.5 μL of 2×RT-PCR buffer, 0.4 μL of 25×RT-PCR enzyme mix, 0.75 μL of 20×GAPDH primer-probe mix, 4.0075 μL of water, 2 μL of 10-fold diluted cell lysate, 0.06 μL of 100 μM SMN forward primer, 0.06 μL of 100 μM SMN reverse primer, and 0.225 μL of 100 μM SMN probe.
PCR is carried out at the following temperatures for the indicated time: Step 1: 48° C. (15 min); Step 2: 95° C. (10 min); Step 3: 95° C. (15 sec); Step 4: 60° C. (1 min); then repeat Steps 3 and 4 for a total of 40 cycles.
Each reaction mixture contains both SMN2-A minigene and GAPDH primers/probe sets (multiplex design), allowing simultaneous measurement of the levels of two transcripts.
Two SMN spliced products are generated from the SMN2 minigene. The first spliced product containing exon 7, corresponding to SMN2 full length mRNA, is referred to herein using the term “SMN2 minigene FL.” The second spliced product lacking exon 7 is referred to herein using the term “SMN2 minigene Δ7.”
The increase of SMN2 minigene FL mRNA relative to that in cells treated with vehicle control is determined from real-time PCR data using a modified ΔΔCt method (as described in Livak and Schmittgen, Methods, 2001, 25:402-8). The amplification efficiency (E) is calculated from the slope of the amplification curve for SMN2 minigene FL and GAPDH individually. The abundances of SMN2 minigene FL and GAPDH are then calculated as (1+E)^−Ct, where Ct is the threshold value for each amplicon. The abundance of SMN2 minigene FL is normalized to GAPDH abundance. The normalized SMN2 minigene FL abundance from test compound-treated samples is then divided by normalized SMN2 minigene FL abundance from vehicle-treated cells to determine the level of SMN2 FL mRNA relative to vehicle control.

Smn protein = Smn protein assay (HTRF) in cultured cells (SMA patient fibroblasts GM03813); type: cell-based, human; details: 48 hours; for EC1.5x for Smn protein expression: SMA patient fibroblast cells (GM03813), HTRF, 7-point concentration data, concentration producing 1.5 times Smn protein vs DMSO vehicle control; for maximum fold (Fold) increase of Smn protein: SMA patient fibroblast cells, 7-point concentration curve, relative to vehicle control
Experimental: The Smn HTRF (homogeneous time resolved fluorescence) assay is used to quantify the level of Smn protein in SMA patient fibroblast cells treated with test compounds.
Cells are thawed and cultured in DMEM-10% FBS for 72 hours. Cells are trypsinized, counted and re-suspended to a concentration of 25,000 cells/mL in DMEM-10% FBS. The cell suspension is plated at 5,000 cells per well in a 96 well microtiter plate and incubated for 3 to 5 hours. […] Test compounds are serially diluted 3.16-fold in 100% DMSO to generate a 7-point concentration curve. 1 μL of test compound solution is transferred to cell-containing wells and cells are incubated for 48 hours in a cell culture incubator (37° C., 5% CO2, 100% relative humidity). Triplicate samples are set up for each test compound concentration. After 48 hours, the supernatant is removed from the wells and 25 μL of the RIPA lysis buffer, containing protease inhibitors, is added to the wells and incubated with shaking at room temperature for 1 hour. 25 μL of the diluent is added and then 35 μL of the resulting lysate is transferred to a 384-well plate, where each well contains 5 μL of the antibody solution (1:100 dilution of anti-SMN d2 and anti-SMN kryptate in SMN reconstitution buffer). The plate is centrifuged for 1 minute to bring the solution to the bottom of the wells, then incubated overnight at room temperature. Fluorescence for each well of the plate at 665 nm and 620 nm is measured on an EnVision multilabel plate reader (Perkin-Elmer).
The normalized fluorescence signal is calculated for each sample, Blank and vehicle control well by dividing the signal at 665 nm by the signal at 620 nm. Normalizing the signal accounts for possible fluorescence quenching due to the matrix effect of the lysate. The ΔF value (a measurement of Smn protein abundance as a percent value) for each sample well is calculated by subtracting the normalized average fluorescence for the Blank control wells from the normalized fluorescence for each sample well, then dividing this difference by the normalized average fluorescence for the Blank control wells and multiplying the resulting value by 100. The ΔF value for each sample well represents the Smn protein abundance from test compound-treated samples. The ΔF value for each sample well is divided by the ΔF value for the vehicle control wells to calculate the fold increase in Smn protein abundance relative to the vehicle control.

Row | SMILES | EC (1.5-fold) [1] | EC1.5x for Smn protein expression (Smn protein) | maximum fold (Fold) increase of Smn protein (Smn protein)
1 | Cc1ccn2cc(-c3cc4ccc(N5CCNC[C@@H]5C)nc4oc3=O)nc2c1 [Cpd 59, 3-(7-methylimidazo[1,2-a]pyridin-2-yl)-7-[(2S)-2-methylpiperazin-1-yl]-2H-pyrano[2,3-b]pyridin-2-one] | ≤ 0.1 µM | **** (an EC1.5×≦0.3 μM is indicated by four stars (****)) | **** (a fold increase between >1.5 and ≦1.65 is indicated by four stars (****))
2 | C[C@H]1CNCCN1c1ccc2cc(-c3cn4cccc(F)c4n3)c(=O)oc2n1 [Cpd 63, 3-(8-fluoroimidazo[1,2-a]pyridin-2-yl)-7-[(2S)-2-methylpiperazin-1-yl]-2H-pyrano[2,3-b]pyridin-2-one] | ≤ 0.1 µM | **** (an EC1.5×≦0.3 μM is indicated by four stars (****)) | **** (a fold increase between >1.5 and ≦1.65 is indicated by four stars (****))
3 | C[C@H]1CN(c2ccc3cc(-c4cn5cccc(F)c5n4)c(=O)oc3n2)CCN1 [Cpd 64, 3-(8-fluoroimidazo[1,2-a]pyridin-2-yl)-7-[(3S)-3-methylpiperazin-1-yl]-2H-pyrano[2,3-b]pyridin-2-one] | ≤ 0.1 µM | **** (an EC1.5×≦0.3 μM is indicated by four stars (****)) | **** (a fold increase between >1.5 and ≦1.65 is indicated by four stars (****))
4 | Cc1ccc2nc(-c3cc4ccc(N5CCN[C@@H](C)C5)nc4oc3=O)cn2c1 [Cpd 72, 3-(6-methylimidazo[1,2-a]pyridin-2-yl)-7-[(3S)-3-methylpiperazin-1-yl]-2H-pyrano[2,3-b]pyridin-2-one] | ≤ 0.1 µM | **** (an EC1.5×≦0.3 μM is indicated by four stars (****)) | **** (a fold increase between >1.5 and ≦1.65 is indicated by four stars (****))
5 | Cc1ccc2nc(-c3cc4ccc(N5CCN[C@H](C)C5)nc4oc3=O)cn2c1 [Cpd 73, 3-(6-methylimidazo[1,2-a]pyridin-2-yl)-7-[(3R)-3-methylpiperazin-1-yl]-2H-pyrano[2,3-b]pyridin-2-one] | 0.1 to 0.3 µM | ** (an EC1.5× between >1 and ≦3 μM is indicated by two stars (**)) | *** (a fold increase between >1.35 and ≦1.5 is indicated by three stars (***))
6 | C[C@H]1CN(c2ccc3cc(-c4cn5ccccc5n4)c(=O)oc3n2)CCN1.Cl [Cpd 79, 3-(imidazo[1,2-a]pyridin-2-yl)-7-[(3S)-3-methylpiperazin-1-yl]-2H-pyrano[2,3-b]pyridin-2-one hydrochloride] | ≤ 0.1 µM | **** (an EC1.5×≦0.3 μM is indicated by four stars (****)) | ***** (a fold increase >1.65 is indicated by five stars (*****))
7 | C[C@@H]1CN(c2ccc3cc(-c4cn5ccccc5n4)c(=O)oc3n2)CCN1.Cl [Cpd 80, 3-(imidazo[1,2-a]pyridin-2-yl)-7-[(3R)-3-methylpiperazin-1-yl]-2H-pyrano[2,3-b]pyridin-2-one hydrochloride] | ≤ 0.1 µM | **** (an EC1.5×≦0.3 μM is indicated by four stars (****)) | **** (a fold increase between >1.5 and ≦1.65 is indicated by four stars (****))
8 | C[C@H]1CN(c2ccc3cc(-c4cn5ccsc5n4)c(=O)oc3n2)CCN1.Cl [Cpd 83, 3-(imidazo[2,1-b][1,3]thiazol-6-yl)-7-[(3S)-3-methylpiperazin-1-yl]-2H-pyrano[2,3-b]pyridin-2-one hydrochloride] | ≤ 0.1 µM | **** (an EC1.5×≦0.3 μM is indicated by four stars (****)) | **** (a fold increase between >1.5 and ≦1.65 is indicated by four stars (****))
9 | C[C@@H]1CN(c2ccc3cc(-c4cn5ccsc5n4)c(=O)oc3n2)CCN1.Cl [Cpd 84, 3-(imidazo[2,1-b][1,3]thiazol-6-yl)-7-[(3R)-3-methylpiperazin-1-yl]-2H-pyrano[2,3-b]pyridin-2-one hydrochloride] | ≤ 0.1 µM | **** (an EC1.5×≦0.3 μM is indicated by four stars (****)) | ***** (a fold increase >1.65 is indicated by five stars (*****))
10 | Cc1ccn2cc(-c3cc4ccc(N5C[C@H](C)NC[C@H]5C)nc4oc3=O)nc2c1 [Cpd 88, 7-[(2R,5S)-2,5-dimethylpiperazin-1-yl]-3-(7-methylimidazo[1,2-a]pyridin-2-yl)-2H-pyrano[2,3-b]pyridin-2-one] | ≤ 0.1 µM | **** (an EC1.5×≦0.3 μM is indicated by four stars (****)) | **** (a fold increase between >1.5 and ≦1.65 is indicated by four stars (****))
11 | Cc1ccc2nc(-c3cc4ccc(N5C[C@H](C)N(C)C[C@H]5C)nc4oc3=O)cn2c1 [Cpd 93, 3-(6-methylimidazo[1,2-a]pyridin-2-yl)-7-[(2R,5S)-2,4,5-trimethylpiperazin-1-yl]-2H-pyrano[2,3-b]pyridin-2-one] | 0.3 to 1 µM | – | *** (a fold increase between >1.35 and ≦1.5 is indicated by three stars (***))
12 | Cc1cn2cc(-c3cc4ccc(N5C[C@H](C)NC[C@H]5C)nc4oc3=O)nc2cn1 [Cpd 102, 7-[(2R,5S)-2,5-dimethylpiperazin-1-yl]-3-(6-methylimidazo[1,2-a]pyrazin-2-yl)-2H-pyrano[2,3-b]pyridin-2-one] | ≤ 0.1 µM | **** (an EC1.5×≦0.3 μM is indicated by four stars (****)) | ***** (a fold increase >1.65 is indicated by five stars (*****))

Reference: patent US9371336B2, “Compounds for treating spinal muscular atrophy” (PTC Therapeutics Inc., priority 2012, dated 2016)
